The source of these data is PubChem BioAssay AID248 (DTP/NCI, 2004).

Where “and” joins values, the source holds several entries; their conditions need not be identical. Identical values can stand only once. Inconclusive results and toxic doses are left out.

In this test the test system is L1210 leukemia ip in BDF1 mice, survival T/C. The test is described as follows: NCI In Vivo Anticancer Drug Screen. Data for tumor model L1210 Leukemia (intraperitoneal) in B6D2F1 (BDF1) mice. The note with it: endpoint: mean survival time, higher = longer survival. Summed up:
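Read-out is survival time, reported as the treated-group measurement over the vehicle-control measurement.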

Setting [1] is: dose: 25.0 mg/kg/injection, schedule: Q04DX002 (ip), vehicle: saline with Tween-80.
The mark [2] stands for this setting: dose: 50.0 mg/kg/injection, schedule: Q04DX002 (ip), vehicle: saline with Tween-80.
The mark [3] stands for this setting: dose: 100.0 mg/kg/injection, schedule: Q04DX002 (ip), vehicle: saline with Tween-80.
[4] abbreviates: dose: 200.0 mg/kg/injection, schedule: Q04DX002 (ip), vehicle: saline with Tween-80.
The mark [5] stands for this setting: dose: 100.0 mg/kg/injection, schedule: Q01DX001 (ip), vehicle: saline.
Setting [6] is: dose: 100.0 mg/kg/injection, schedule: Q04DX003 (ip), vehicle: saline.
[7] abbreviates: dose: 200.0 mg/kg/injection, schedule: Q01DX001 (ip), vehicle: saline.
Setting [8] is: dose: 200.0 mg/kg/injection, schedule: Q04DX003 (ip), vehicle: saline.
Setting [9] is: dose: 100.0 mg/kg/injection, schedule: Q01DX009 (ip), vehicle: Klucel (hydroxypropylcellulose) (HPC).
Where [10] appears, read: dose: 400.0 mg/kg/injection, schedule: Q01DX001 (ip), vehicle: saline.

Take `CCCCCCCC/C=C\CCCCCCCCSC#N`: the T/C was 97 % of control under setting [1]; 106 % of control under setting [2]; 97 % of control (dose: 100.0 mg/kg/injection, schedule: Q01DX009 (ip), vehicle: saline with Tween-80); 100 % of control under setting [3]; 97 % of control (dose: 200.0 mg/kg/injection, schedule: Q01DX009 (ip), vehicle: saline with Tween-80); 103 % of control under setting [4]. Besides, the T/C (dose: 400.0 mg/kg/injection, schedule: Q04DX002 (ip), vehicle: saline with Tween-80) was 87 % of control.

`O=[n+]1c2c(n([O-])c3ccccc31)-c1cccc3cccc-2c13`: the T/C is 96 % of control (dose: 50.0 mg/kg/injection, schedule: Q04DX003 (ip), vehicle: saline); 88 % of control under setting [5]; 93 % of control under setting [6]; 98 % of control (dose: 125.0 mg/kg/injection, schedule: Q01DX Z (ip), vehicle: methylcellulose (MC)); 94 % of control under setting [7]; 93 % of control under setting [8].

As to `CC1=NC(C)(C)C(C)=C1C`, the T/C by setting is: under setting [1], 91 % of control; under setting [2], 94 % of control; under setting [3], 91 % of control.

On to `Cc1cn(C2CCCCO2)c(=O)nc1NO` (configuration not stated), for which the T/C reads like this: (dose: 100.0 mg/kg/injection, schedule: Q01DX001 (ip), vehicle: carboxymethylcellulose (CMC)) 95 % of control; (dose: 200.0 mg/kg/injection, schedule: Q01DX001 (ip), vehicle: carboxymethylcellulose (CMC)) 90 % of control; (dose: 400.0 mg/kg/injection, schedule: Q01DX001 (ip), vehicle: carboxymethylcellulose (CMC)) 108 % of control.

On to `CC(=O)OCC(=O)C1CCC=CC1OC(C)=O` (configuration not stated), for which the T/C (dose: 100.0 mg/kg/injection, schedule: Q01DX009 (ip), vehicle: saline) is 105 % of control; the T/C under setting [6] is 93 % of control; the T/C (dose: 200.0 mg/kg/injection, schedule: Q01DX009 (ip), vehicle: saline) is 105 % of control; the T/C under setting [8] is 91 % of control; the T/C (dose: 400.0 mg/kg/injection, schedule: Q01DX009 (ip), vehicle: saline) is 98 % of control; the T/C (dose: 400.0 mg/kg/injection, schedule: Q04DX003 (ip), vehicle: saline) is 91 % of control.

Regarding `O=C1C2(Cl)C3(Cl)C4(Cl)C(Cl)(Cl)C5(Cl)[C@]3(Cl)C1(Cl)[C@]5(Cl)C24Cl` (some centres not stated), the T/C is, setting by setting: (dose: 75.0 mg/kg/injection, schedule: Q01DX001 (ip), vehicle: carboxymethylcellulose (CMC)) 102 % of control; (dose: 150.0 mg/kg/injection, schedule: Q01DX001 (ip), vehicle: carboxymethylcellulose (CMC)) 96 % of control.

As to `O=C1C2CC=CCC2C(=O)N1SC(Cl)(Cl)Cl` (configuration not stated), the T/C (dose: 0.78 mg/kg/injection, schedule: Q01DX009 (ip), vehicle: saline with Tween-80) was 107 % of control; the T/C (dose: 1.56 mg/kg/injection, schedule: Q01DX009 (ip), vehicle: saline with Tween-80) was 104 % of control; the T/C (dose: 3.12 mg/kg/injection, schedule: Q01DX009 (ip), vehicle: saline with Tween-80) was 103 % of control; the T/C (dose: 6.25 mg/kg/injection, schedule: Q01DX009 (ip), vehicle: saline with Tween-80) was 103 % of control; the T/C (dose: 12.5 mg/kg/injection, schedule: Q01DX009 (ip), vehicle: saline with Tween-80) was 97 % of control; the T/C (dose: 25.0 mg/kg/injection, schedule: Q01DX009 (ip), vehicle: saline with Tween-80) was 98 % of control.

With `Cn1c(=O)c2n[se]nc2n(C)c1=O`, the T/C is, setting by setting: (dose: 3.12 mg/kg/injection, schedule: Q01DX009 (ip), vehicle: Klucel (hydroxypropylcellulose) (HPC)) 91 % of control; (dose: 3.12 mg/kg/injection, schedule: Q04DX002 (ip), vehicle: Klucel (hydroxypropylcellulose) (HPC)) 102 % of control; (dose: 6.25 mg/kg/injection, schedule: Q01DX009 (ip), vehicle: Klucel (hydroxypropylcellulose) (HPC)) 94 % of control; (dose: 6.25 mg/kg/injection, schedule: Q04DX002 (ip), vehicle: Klucel (hydroxypropylcellulose) (HPC)) 105 % of control; (dose: 12.5 mg/kg/injection, schedule: Q04DX002 (ip), vehicle: Klucel (hydroxypropylcellulose) (HPC)) 108 % of control and 111 % of control; (dose: 25.0 mg/kg/injection, schedule: Q04DX002 (ip), vehicle: Klucel (hydroxypropylcellulose) (HPC)) 108 % of control.

In the case of `[C-]#[N+]CCc1ccccc1`, the T/C runs as follows: (dose: 100.0 mg/kg/injection, schedule: Q01DX001 (ip), vehicle: saline with Tween-80) 98 % of control; (dose: 200.0 mg/kg/injection, schedule: Q01DX001 (ip), vehicle: saline with Tween-80) 96 % of control.

In the case of `CCCCCN(CCCCC)CCCNc1c2c(nc3ccc(OC)cc13)CCCC2`, the T/C was 100 % of control (dose: 2.5 mg/kg/injection, schedule: Q01DX009 (ip), vehicle: saline); 98 % of control (dose: 5.0 mg/kg/injection, schedule: Q01DX001 (ip), vehicle: saline); 104 % of control (dose: 5.0 mg/kg/injection, schedule: Q01DX009 (ip), vehicle: saline); 94 % of control and 102 % of control (dose: 9.0 mg/kg/injection, schedule: Q01DX001 (ip), vehicle: saline); 96 % of control (dose: 10.0 mg/kg/injection, schedule: Q01DX001 (ip), vehicle: saline); 98 % of control (dose: 10.0 mg/kg/injection, schedule: Q01DX009 (ip), vehicle: saline). The T/C runs as follows: (dose: 13.0 mg/kg/injection, schedule: Q01DX001 (ip), vehicle: saline) 94 % of control; (dose: 14.0 mg/kg/injection, schedule: Q01DX001 (ip), vehicle: saline) 104 % of control; (dose: 20.0 mg/kg/injection, schedule: Q01DX001 (ip), vehicle: saline) 93 % of control and 102 % of control (2×); (dose: 20.0 mg/kg/injection, schedule: Q01DX009 (ip), vehicle: saline) 100 % of control; (dose: 30.0 mg/kg/injection, schedule: Q01DX001 (ip), vehicle: saline) 98 % of control.

Take `C=CCOCCC(=O)OCC=C`: the T/C is, setting by setting: (dose: 50.0 mg/kg/injection, schedule: Q01DX009 (ip), vehicle: Klucel (hydroxypropylcellulose) (HPC)) 95 % of control; under setting [9], 92 % of control; under setting [6], 103 % of control; under setting [8], 103 % of control.

As to `COc1cc([N+](=O)[O-])ccc1NC(=O)N(Cc1ccccc1)c1ccccc1`, the T/C is, setting by setting: under setting [9], 98 % of control; (dose: 200.0 mg/kg/injection, schedule: Q01DX009 (ip), vehicle: Klucel (hydroxypropylcellulose) (HPC)) 93 % of control; (dose: 400.0 mg/kg/injection, schedule: Q01DX009 (ip), vehicle: Klucel (hydroxypropylcellulose) (HPC)) 91 % of control.

Turning to `O=C(Nc1ccc(C2=NCCN2)cc1)c1cncc(C(=O)Nc2ccc(C3=NCCN3)cc2)n1`, the T/C reads like this: (dose: 31.0 mg/kg/injection, schedule: Q01DX Z (ip), vehicle: carboxymethylcellulose (CMC)) 109 % of control; (dose: 62.5 mg/kg/injection, schedule: Q01DX Z (oral), vehicle: water) 94 % of control; (dose: 125.0 mg/kg/injection, schedule: Q01DX Z (ip), vehicle: carboxymethylcellulose (CMC)) 168 % of control; (dose: 125.0 mg/kg/injection, schedule: Q01DX Z (oral), vehicle: water) 100 % of control; (dose: 250.0 mg/kg/injection, schedule: Q01DX Z (ip), vehicle: carboxymethylcellulose (CMC)) 227 % of control; (dose: 250.0 mg/kg/injection, schedule: Q01DX Z (oral), vehicle: water) 97 % of control. For the same compound, under “dose: 500.0 mg/kg/injection, schedule: Q01DX Z (oral), vehicle: water”, the T/C is 97 % of control.

Take `Nc1cncnc1`: the T/C (dose: 50.0 mg/kg/injection, schedule: Q01DX001 (ip), vehicle: saline) was 112 % of control; the T/C under setting [5] was 107 % of control; the T/C under setting [7] was 98 % of control; the T/C under setting [10] is 102 % of control.

For the compound `NS(=O)(=O)c1cc2c(cc1Cl)NC(CC1CCCC1)NS2(=O)=O` (configuration not stated), the T/C by setting is: under setting [5], 105 % of control; under setting [7], 100 % of control; under setting [10], 107 % of control.

With `NC(=O)N/N=C(\CCl)c1ccccc1`, the T/C (dose: 12.0 mg/kg/injection, schedule: Q04DX003 (ip), vehicle: saline) is 93 % of control.

In the case of `O=C(OCC1OCOC(COC(=O)c2ccccc2)C1O)c1ccccc1` (configuration not stated), the T/C by setting is: under setting [2], 118 % of control; under setting [3], 112 % of control; under setting [4], 102 % of control.
